# Data: ChEMBL document CHEMBL3588832, “The biology and synthesis of α-hydroxytropolones” (Medchemcomm, 2014)
# What was measured:
# [1] = Inhibition of HIV integrase 3' processing activity; set-up: species or system Human immunodeficiency virus
# [2] = Inhibition of HIV integrase strand transfer activity; set-up: species or system Human immunodeficiency virus
# [3] = Inhibition of HIV reverse transcriptase RNase H; set-up: species or system Human immunodeficiency virus
# [4] = Inhibition of HIV reverse transcriptase polymerase; set-up: species or system Human immunodeficiency virus
# [5] = Inhibition of hepatitis B virus genotype D RNaseH
# [6] = tested on: Hepatitis B virus; test: Antiviral activity against HBV assessed as inhibition of viral replication at 10 uM in cell based assay; assay type: functional
# [7] = Inhibition of XMRV RNaseH; set-up: species or system Xenotropic MuLV-related virus
# [8] = Inhibition of phosphotidylcholine-preferring phospholipase C (unknown origin) at pH 7.3; set-up: species or system Homo sapiens
# [9] = Inhibition of phosphotidylcholine-preferring phospholipase C (unknown origin) at pH 9.5; set-up: species or system Homo sapiens
# [10] = tested on: B16; test: Cytotoxicity against mouse B16 cells; assay type: functional, cell-based
# [11] = Inhibition of HIV1 reverse transcriptase RNase H; set-up: species or system Human immunodeficiency virus 1
# [12] = Inhibition of HIV2 reverse transcriptase RNase H; set-up: species or system Human immunodeficiency virus 2
# [13] = Inhibition of Escherichia coli ribonuclease H
# [14] = Inhibition of human ribonuclease H
# [15] = tested on: Plasmodium falciparum; test: Antimalarial activity against chloroquine-resistant Plasmodium falciparum K1; assay type: functional, organism-based
# [16] = Inhibition of inositol monophosphatase (unknown origin); set-up: species or system Homo sapiens
# [17] = Inhibition of alkaline phosphatase (unknown origin); set-up: species or system Homo sapiens
# [18] = target: T1, Dopamine beta-hydroxylase (Homo sapiens, UniProt P09172); test: Inhibition of dopamine beta-oxygenase (unknown origin)
# T1 sequence (P09172 whole entry): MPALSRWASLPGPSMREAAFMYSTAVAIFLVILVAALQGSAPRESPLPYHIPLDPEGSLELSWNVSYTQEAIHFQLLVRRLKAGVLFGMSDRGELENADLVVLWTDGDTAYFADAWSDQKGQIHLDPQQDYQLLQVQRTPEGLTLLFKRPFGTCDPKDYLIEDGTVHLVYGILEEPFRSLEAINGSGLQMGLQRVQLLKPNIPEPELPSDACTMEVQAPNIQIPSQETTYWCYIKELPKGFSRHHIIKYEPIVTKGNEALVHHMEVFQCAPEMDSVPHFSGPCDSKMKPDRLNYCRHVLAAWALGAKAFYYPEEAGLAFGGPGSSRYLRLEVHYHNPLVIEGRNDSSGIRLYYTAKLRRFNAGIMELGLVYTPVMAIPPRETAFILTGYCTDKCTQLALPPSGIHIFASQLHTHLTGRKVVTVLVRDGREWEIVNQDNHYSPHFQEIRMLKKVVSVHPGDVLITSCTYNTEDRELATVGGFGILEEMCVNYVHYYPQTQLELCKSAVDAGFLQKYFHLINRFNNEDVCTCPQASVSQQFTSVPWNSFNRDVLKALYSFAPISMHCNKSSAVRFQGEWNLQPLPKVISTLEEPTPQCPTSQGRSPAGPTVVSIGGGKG
# [19] = tested on: Poria; test: Antifungal activity against Poria monticola; assay type: functional
# [20] = tested on: Coniophora puteana; test: Antifungal activity against Coniophora puteana; assay type: functional
# [21] = Antifungal activity against Polyporus versicolor; assay type: functional
# [22] = Antifungal activity against Stereum sanguinolentum; assay type: functional
# [23] = Antifungal activity against Phellinus weirii; assay type: functional
# [24] = tested on: Escherichia coli; test: Inhibition of Escherichia coli W677/JR76.2 2'-O-adenylyltransferase at 55 uM using aminoglycoside and [14C]ATP incubated for 15 mins by liquid scintillation counting based radiochemical assay
# [25] = tested on: Escherichia coli; test: Inhibition of Escherichia coli W677/JR76.2 2'-O-adenylyltransferase at 5.5 uM using aminoglycoside and [14C]ATP incubated for 15 mins by liquid scintillation counting based radiochemical assay
# [26] = tested on: Escherichia coli; test: Inhibition of Escherichia coli W677/JR76.2 2'-O-adenylyltransferase at 550 uM using aminoglycoside and [14C]ATP incubated for 15 mins by liquid scintillation counting based radiochemical assay
# [27] = tested on: Staphylococcus aureus; test: Antibacterial activity against Staphylococcus aureus; assay type: functional
# [28] = tested on: Aspergillus fumigatus; test: Antifungal activity against Aspergillus fumigatus IAM2350; assay type: functional
# [29] = tested on: Micrococcus luteus; test: Antibacterial activity against Micrococcus luteus; assay type: functional
# [30] = tested on: Pseudomonas aeruginosa; test: Antibacterial activity against Pseudomonas aeruginosa; assay type: functional
# [31] = tested on: Klebsiella pneumoniae; test: Antibacterial activity against Klebsiella pneumoniae; assay type: functional
# [32] = tested on: Escherichia coli; test: Antibacterial activity against Escherichia coli NIHJ; assay type: functional
# [33] = tested on: Plasmodium falciparum; test: Antimalarial activity against Plasmodium falciparum FCR-3/Gambia; assay type: functional, organism-based
# [34] = tested on: MRC5; test: Cytotoxicity against human MRC5 cells; assay type: functional, cell-based
# [35] = tested on: Plasmodium falciparum; test: Antimalarial activity against Plasmodium falciparum infected in mouse; assay type: functional
# [36] = tested on: Escherichia coli; test: Inhibition of Escherichia coli W677/JR76.2 2'-O-adenylyltransferase at 730 uM using aminoglycoside and [14C]ATP incubated for 15 mins by liquid scintillation counting based radiochemical assay
# [37] = tested on: Escherichia coli; test: Inhibition of Escherichia coli W677/JR76.2 2'-O-adenylyltransferase at 7.3 uM using aminoglycoside and [14C]ATP incubated for 15 mins by liquid scintillation counting based radiochemical assay
# [38] = Inhibition of hepatitis B virus genotype H RNaseH
# [39] = tested on: Hepatitis B virus; test: Antiviral activity against HBV assessed as inhibition of viral replication in cell based assay; assay type: functional, organism-based
# [40] = Toxicity in mouse assessed as induction of mortality after 48 hrs; assay type: organism-based; details: in vivo
# [41] = Toxicity in mouse assessed as induction of mortality after 72 hrs; assay type: organism-based; details: in vivo
# [42] = tested on: B16; test: Antitumor activity against mouse B16 cells implanted in mouse assessed as mouse survival at 1 mg/kg/day (reference value: 16 days); assay type: functional
# [43] = tested on: Escherichia coli; test: Inhibition of Escherichia coli W677/JR76.2 2'-O-adenylyltransferase at 650 uM using aminoglycoside and [14C]ATP incubated for 15 mins by liquid scintillation counting based radiochemical assay
# [44] = tested on: Escherichia coli; test: Inhibition of Escherichia coli W677/JR76.2 2'-O-adenylyltransferase at 6.5 uM using aminoglycoside and [14C]ATP incubated for 15 mins by liquid scintillation counting based radiochemical assay
# [45] = tested on: Human immunodeficiency virus 1; test: Antiviral activity against HIV1 assessed as inhibition of viral replication in cell based assay; assay type: functional, organism-based
# [46] = tested on: B16; test: Inhibition of DNA synthesis in mouse B16 cells; assay type: functional, cell-based
# [47] = tested on: B16; test: Inhibition of RNA synthesis in mouse B16 cells; assay type: functional, cell-based
# [48] = tested on: B16; test: Inhibition of protein synthesis in mouse B16 cells; assay type: functional, cell-based
# [49] = tested on: B16; test: Antitumor activity against mouse B16 cells implanted in mouse assessed as mouse survival at 1.3 mg/kg/day (reference value: 16 days); assay type: functional
# [50] = tested on: B16; test: Antitumor activity against mouse B16 cells implanted in mouse assessed as mouse survival at 2.5 mg/kg/day (reference value: 16 days); assay type: functional
compound,measurement,setting,value
O=Cc1ccc(-c2ccc(O)c(=O)c(O)c2O)cc1,IC50,[1],0.6 µM
same,IC50,[2],1200 nM
same,IC50,[3],12 µM
same,IC50,[4],0.6 µM
NCc1ccc(-c2ccc(Cc3cc(=O)n(O)c4ncccc34)cc2)cc1,IC50,[5],2.5 µM
same,inhibition at 10 µM,[6],93%
same,IC50,[7],410 nM
O=C1C=CCN(O)C(=O)N1O,Ki,[8],388 µM
same,Ki,[9],53 µM
O=c1ccc(O)ccc1O,IC50,[10],13000 nM
O=c1c(O)c(O)ccc(-c2cccc([N+](=O)[O-])c2)c1O,IC50,[1],0.7 µM
same,IC50,[2],800 nM
same,IC50,[3],1.3 µM
same,IC50,[4],2.3 µM
CC(C)c1ccccc(=O)c1O [ALPHA-THUJAPLICIN],IC50,[11],50 µM
same,IC50,[12],33 µM
same,IC50,[13],> 100 µM
same,IC50,[14],12 µM
CC(=O)Oc1cccc(OC(C)=O)c(=O)c1OC(C)=O,IC50,[1],> 1000 µM
same,IC50,[3],> 1000 µM
same,IC50,[4],30 µM
O=c1cccccc1O [TROPOLONE],IC50,[15],> 100 µM
same,IC50,[16],> 1000 µM
same,IC50,[17],> 1000 µM
same,IC50,[18],2000 nM
same,IC50,[11],> 100 µM
same,IC50,[12],> 100 µM
same,IC50,[13],> 100 µM
same,IC50,[14],3 µM
CC(C)c1ccc(O)c(=O)cc1 [GAMMA-THUJAPLICIN],MIC,[19],10 µM
same,MIC,[20],10 µM
same,MIC,[21],70 µM
same,MIC,[22],50 µM
same,MIC,[23],50 µM
CC(=O)Nc1ccc(-c2cc(-c3ccc(NC(C)=O)cc3)c(O)c(=O)c(O)c2O)cc1,IC50,[1],0.15 µM
same,IC50,[2],1700 nM
same,IC50,[3],900 µM
same,IC50,[4],52 µM
O=c1c(O)ccc(O)cc1O,IC50,[10],2500 nM
COc1cc(C(=O)O)cc(O)c(OC)c1=O,IC50,[15],3.7 µM
O=c1c(O)ccccc1O,inhibition,[24],78%
same,inhibition,[25],8%
same,Ki,[8],16 µM
same,Ki,[9],23 µM
same,inhibition,[26],100%
same,MIC,[27],90 µM
same,MIC,[28],730 µM
same,MIC,[29],90 µM
same,MIC,[30],700 µM
same,MIC,[31],360 µM
same,MIC,[32],45 µM
same,IC50,[10],2200 nM
same,IC50,[15],6.4 µM
same,IC50,[33],8700 nM
same,IC50,[34],1.7 µM
same,IC50,[16],75 µM
same,IC50,[17],15 µM
same,IC50,[18],2000 nM
N#Cc1ccc(-c2ccc(O)c(=O)c(O)c2O)cc1,IC50,[16],4 µM
O=C(O)c1cc(O)c(O)c(=O)c(O)c1,IC50,[15],0.05 µM
same,IC50,[33],50 nM
same,IC50,[34],360 µM
same,ED50,[35],< 2 mg/kg
same,IC50,[16],10 µM
CC(C)c1ccc(O)c(=O)c(O)c1 [BETA-THUJAPLICINOL],inhibition,[36],100%
same,inhibition,[37],31%
same,IC50,[5],5.9 µM
same,IC50,[38],2300 nM
same,EC50,[39],5 µM
same,IC50,[7],1400 nM
same,MIC,[19],10 µM
same,MIC,[20],10 µM
same,MIC,[21],800 µM
same,MIC,[22],330 µM
same,MIC,[23],100 µM
same,LD50 at 48 h,[40],175 mg/kg
same,LD50 at 72 h,[41],155 mg/kg
same,IC50,[11],0.2 µM
same,IC50,[12],0.8 µM
same,IC50,[13],50 µM
same,IC50,[14],5.7 µM
same,IC50,[3],0.2 µM
C[C@H]1[C@H](OC(=O)CCC(=O)O)O[C@@H]2O[C@@]3(C)CC[C@H]4[C@H](C)CC[C@@H]1[C@@]24OO3 [ARTESUNATE],IC50,[15],0.01 µM
same,IC50,[33],2.5 nM
same,IC50,[34],36 µM
same,ED50,[35],1.7 mg/kg
CO[C@@]12[C@H](COC(N)=O)C3=C(C(=O)C(C)=C(N)C3=O)N1C[C@@H]1N[C@@H]12 [MITOMYCIN],MST,[42],27 days
O=c1c(O)cccc(O)c1O,inhibition,[43],54%
same,inhibition,[44],2%
same,IC50,[1],40 µM
same,IC50,[2],11000 nM
same,IC50,[45],300 nM
same,IC50,[10],260 nM
same,IC50,[46],60 µM
same,IC50,[47],90 µM
same,IC50,[48],70 µM
same,MST,[49],29 days
same,MST,[50],12 days
same,IC50,[16],8 µM
same,IC50,[17],60 µM
same,IC50,[18],3000 nM
same,IC50,[3],20 µM
same,IC50,[4],3.2 µM
